Data from patent US12157730B2, “Heteroaryl derivative, method for producing same, and pharmaceutical composition comprising same as effective component” (VORONOI INC., priority 2019, dated 2024).

Legend:
Type in all cases: cell-based
[1] = biological target: T1, Ba/F3 cell EGFR L858R/T790M (Homo sapiens, UniProt P00533, L858R/T790M); assay: Ba/F3 cell proliferation suppression, EGFR L858R/T790M; details: 72 hours after treatment, CellTiter-Glo
T1 construct: expressed in transfected cells; host or cells: Ba/F3
Method in brief: (§1)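 Seed 3000–5000 cells/well; after 24 h add compound (12 conc., 0.3 nM–50 um final); incubate 72 h; add CellTiter-Glo, 10 min room temperature; read luminescence; GI50 from % growth vs control, triplicate.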

[2] = tested on: Ba/F3 cell EGFR Del19/T790M; assay: Ba/F3 cell proliferation suppression, EGFR Del19/T790M; details: 72 hours after treatment, CellTiter-Glo
Method: (§2) The following experiment was carried out to evaluate the suppression activity of the compounds according to the present invention against proliferation of Ba/F3 and lung cancer cells which express EGFR mutations.
(§3) Of the cancer cell lines expressing the EGFR gene, A549 was cultured after adding 10% FBS (HyClone) to DMEM (Invitrogen), and RPMI-1640 (Invitrogen) with 10% FBS was used for the other cancer cells. For the Ba/F3 cells, RPMI-1640 with 10% FBS and 5 ng/ml IL-3 (R&D Systems) was used. The transduced Ba/F3 cells were cultured by adding 1 ug/ml puromycin (Invitrogen) to the same medium.
(§4) 24 hours before treatment with the compounds, 3000 to 5000 cells were distributed into each well of a white clear bottom 96 well plate (Corning). The compounds were diluted in dimethylsulfoxide (dilution ratio 3:1; 12 concentrations total) and injected 0.5 ul each for a final concentration of 0.3 nM to 50 um. As for measurement of live cells, 72 hours after treatment with the compounds, a CellTiter-Glo luminescent cell-viability reagent (Promega) was used to store the cells at room temperature for 10 minutes, followed by measurement of luminescence using a reader (SynergyNeo, Biotek). Each test was repeated three times.
(§5) The result was calculated as a cell growth ratio (%) compared to a control. The program GraphPad Prism version 5.0 was used to draw the graphs and calculate the GI50 values.

Ba/F3 cell EGFR L858R = biological target: T2, Ba/F3 cell EGFR L858R (Homo sapiens, UniProt P00533, L858R); assay: Ba/F3 cell proliferation suppression, EGFR L858R; details: 72 hours after treatment, CellTiter-Glo
T2 construct: expressed in transfected cells; host or cells: Ba/F3
Method: as §2, §3, §4, §5

[3] = biological target: T3, Ba/F3 cell EGFR Exon20 ins NPH (Homo sapiens, UniProt P00533, INS773NPH); assay: Ba/F3 cell proliferation suppression, EGFR Exon20 ins NPH; details: for GI50: 72 hours after treatment, CellTiter-Glo; for Ba/F3 (NPH) Activity: GI50 class, Ba/F3 cell line with NPH inserted at Exon20 of EGFR, 72 hours
T3 construct: expressed in transfected cells; host or cells: Ba/F3
Method in brief: as §1

[4] = biological target: T4, Ba/F3 cell EGFR Exon20 ins SVD (Homo sapiens, UniProt P00533, INS770SVD); assay: Ba/F3 cell proliferation suppression, EGFR Exon20 ins SVD; details: 72 hours after treatment, CellTiter-Glo
T4 construct: expressed in transfected cells; host or cells: Ba/F3
Method: as §2, §3, §4, §5

[5] = biological target: T5, Ba/F3 cell EGFR Exon20 ins FQEA (Homo sapiens, UniProt P00533, INS763FQEA); assay: Ba/F3 cell proliferation suppression, EGFR Exon20 ins FQEA; details: 72 hours after treatment, CellTiter-Glo
T5 construct: expressed in transfected cells; host or cells: Ba/F3
Method: as §2, §3, §4, §5

[6] = tested on: Ba/F3 cell EGFR Exon20 ins H; assay: Ba/F3 cell proliferation suppression, EGFR Exon20 ins H; details: 72 hours after treatment, CellTiter-Glo
Method: as §2, §3, §4, §5

[7] = biological target: T6, Ba/F3 cell EGFR Exon20 ins ASV (Homo sapiens, UniProt P00533, INS769ASV); assay: Ba/F3 cell proliferation suppression, EGFR Exon20 ins ASV; details: 72 hours after treatment, CellTiter-Glo
T6 construct: expressed in transfected cells; host or cells: Ba/F3
Method: as §2, §3, §4, §5

[8] = biological target: T7, Ba/F3 cell HER2 Exon20 ins YVMA (Homo sapiens, UniProt P04626, INS775YVMA); assay: Ba/F3 cell proliferation suppression, HER2 Exon20 ins YVMA; details: 72 hours after treatment, CellTiter-Glo
T7 construct: expressed in transfected cells; host or cells: Ba/F3
T7 sequence (P04626 with tags, fused parts or gaps INS775YVMA): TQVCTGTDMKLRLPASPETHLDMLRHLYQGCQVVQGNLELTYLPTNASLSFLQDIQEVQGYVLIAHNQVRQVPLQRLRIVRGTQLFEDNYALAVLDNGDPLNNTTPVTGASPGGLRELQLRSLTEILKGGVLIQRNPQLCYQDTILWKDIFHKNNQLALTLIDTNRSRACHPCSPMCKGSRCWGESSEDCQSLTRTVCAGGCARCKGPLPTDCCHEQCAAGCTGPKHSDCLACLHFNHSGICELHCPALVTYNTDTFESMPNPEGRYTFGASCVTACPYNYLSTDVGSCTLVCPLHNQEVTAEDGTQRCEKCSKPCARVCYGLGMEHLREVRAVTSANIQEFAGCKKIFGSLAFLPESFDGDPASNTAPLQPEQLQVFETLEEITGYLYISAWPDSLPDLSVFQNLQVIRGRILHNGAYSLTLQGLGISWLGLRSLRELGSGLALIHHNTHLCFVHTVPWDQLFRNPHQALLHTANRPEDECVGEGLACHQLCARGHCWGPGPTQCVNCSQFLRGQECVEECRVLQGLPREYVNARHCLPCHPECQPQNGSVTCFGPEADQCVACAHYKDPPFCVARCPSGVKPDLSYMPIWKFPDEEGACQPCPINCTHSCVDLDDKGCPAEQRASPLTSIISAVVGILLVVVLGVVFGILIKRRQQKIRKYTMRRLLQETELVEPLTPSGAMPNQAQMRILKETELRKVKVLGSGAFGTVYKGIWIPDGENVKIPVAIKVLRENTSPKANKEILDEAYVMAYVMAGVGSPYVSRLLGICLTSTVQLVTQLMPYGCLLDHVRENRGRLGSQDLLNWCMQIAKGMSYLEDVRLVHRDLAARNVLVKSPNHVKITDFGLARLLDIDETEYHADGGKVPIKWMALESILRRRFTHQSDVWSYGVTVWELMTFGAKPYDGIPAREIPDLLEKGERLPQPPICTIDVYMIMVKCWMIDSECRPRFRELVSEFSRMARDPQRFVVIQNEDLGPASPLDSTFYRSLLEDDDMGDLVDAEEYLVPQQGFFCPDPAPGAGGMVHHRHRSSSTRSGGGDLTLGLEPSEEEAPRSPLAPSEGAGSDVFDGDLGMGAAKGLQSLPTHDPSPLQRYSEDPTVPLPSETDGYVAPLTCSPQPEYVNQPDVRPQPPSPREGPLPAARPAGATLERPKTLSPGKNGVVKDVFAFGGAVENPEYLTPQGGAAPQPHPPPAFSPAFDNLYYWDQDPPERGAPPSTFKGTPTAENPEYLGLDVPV
Method: as §2, §3, §4, §5

Ba/F3 cell naive = assay: Ba/F3 cell proliferation suppression, naive; details: Mus musculus, BaF3; 72 hours after treatment, CellTiter-Glo
Method in brief: as §1

PC9GR = assay: Lung cancer cell proliferation suppression, PC9GR; details: 72 hours after treatment, CellTiter-Glo
Method: as §2, §3, §4, §5

H1975 = assay: Lung cancer cell proliferation suppression, H1975; details: Homo sapiens, NCI-H1975; 72 hours after treatment, CellTiter-Glo
Method: as §2, §3, §4, §5

PC9 = assay: Lung cancer cell proliferation suppression, PC9; details: Homo sapiens, PC-9; 72 hours after treatment, CellTiter-Glo
Method: as §2, §3, §4, §5

[9] = Cancer cell proliferation suppression, A549; details: A459; 72 hours after treatment, CellTiter-Glo
Method: as §2, §3, §4, §5

Row | Structure (SMILES) | GI50 [1] [µM] | GI50 [2] [µM] | GI50 (Ba/F3 cell EGFR L858R) [µM] | GI50 [3] [µM] | Ba/F3 (NPH) Activity [3] | GI50 [4] [µM] | GI50 [5] [µM] | GI50 [6] [µM] | GI50 [7] [µM] | GI50 [8] [µM] | GI50 (Ba/F3 cell naive) [µM] | GI50 (PC9GR) [nM] | GI50 (H1975) [nM] | GI50 (PC9) [nM] | GI50 [9] [nM]
1 | C=CC(=O)Nc1cc(Nc2cc(N3OCC[C@@H]3c3ccccc3)ncn2)ccc1N1CCN(C)CC1 [Example 29, N-(2-(4-methylpiperazine-1-yl)-5-((6-((R)-3-phenylisoxazolidine-2-yl)pyrimidine-4-yl)amino)phenyl) acrylamide] | < 0.05 | < 0.05 | < 0.05 | < 0.05 | A (GI50 < 50 nM) | < 0.05 | < 0.05 | < 0.05 | < 0.05 | < 0.05 | ≥ 5 |  |  |  | 
2 | C=CC(=O)N1CCC(Oc2cc3c(Nc4ccc(Cl)c(Cl)c4F)ncnc3cc2OC)CC1 [Poziotinib] |  |  |  |  |  |  |  |  |  |  |  | 20 | 34 | 1 | > 15000
3 | C=CC(=O)Nc1cc(Nc2cc(N3OCC[C@@H]3c3ccccc3)ncn2)ccc1N(C)CCN(C)C [Example 28] | < 0.05 | < 0.05 | < 0.05 | < 0.05 | A (GI50 < 50 nM) | < 0.05 | < 0.05 | < 0.05 | < 0.05 | < 0.05 | 0.5 to 5 |  |  |  | 
4 | C=CC(=O)Nc1cc(Nc2cc(N3OCC[C@@H]3c3ccccc3)ncn2)c(OC)cc1N1CCC(N2CCOCC2)CC1 [Example 11, N-(4-methoxy-2-(4-morpholinopiperidine-1-yl)-5-((6-((R)-3-phenylisoxazolidine-2-yl)pyrimidine-4-yl)amino)phenyl) acrylamide] |  |  |  |  | A (GI50 < 50 nM) |  |  |  |  |  |  | 7 | 9 | 2 | > 15000
5 | C=CC(=O)Nc1cc(Nc2nccc(-c3cn(C)c4ccccc34)n2)c(OC)cc1N(C)CCN(C)C [Osimertinib] |  |  |  |  |  |  |  |  |  |  |  | 16 | 36 | 7 | 2410
6 | C=CC(=O)Nc1cc(Nc2cc(N3OCC[C@H]3c3ccccc3)ncn2)c(OC)cc1N1CCN(C)CC1 [Example 3, N-(4-methoxy-2-(4-methylpiperazine-1-yl)-5-((6((S)-3-phenylisoxazolidine-2-yl)pyrimidine-4-yl)amino)phenyl) acrylamide] | 0.5 to 5 | 0.05 to 0.5 |  | 0.05 to 0.5 | B (50 nM ≤ GI50 < 500 nM) | 0.05 to 0.5 | < 0.05 | 0.5 to 5 | 0.05 to 0.5 | 0.05 to 0.5 | ≥ 5 |  |  |  | 
7 | C=CC(=O)Nc1cc(Nc2cc(N3OCC[C@@H]3c3ccccc3)ncn2)c(OC)cc1N1CCC(N(C)C)CC1 [Example 12, N-(2-(4-(dimethylamino)piperidine-1-yl)-4-methoxy-5-((6-((R)-3-phenylisoxazolidine-2-yl)pyrimidine-4-yl)amino)phenyl) acrylamide] | < 0.05 | < 0.05 | < 0.05 | < 0.05 | A (GI50 < 50 nM) | < 0.05 | < 0.05 | < 0.05 | < 0.05 | < 0.05 | ≥ 5 | 5 | 8 | 12 | > 15000
8 | C=CC(=O)Nc1cc(Nc2cc(N3OCC[C@@H]3c3ccccc3)ncn2)c(OC)cc1N1CC[C@@H](N(C)C)C1 [Example 13] | < 0.05 | < 0.05 | < 0.05 | < 0.05 | A (GI50 < 50 nM) | < 0.05 | < 0.05 | < 0.05 | < 0.05 | < 0.05 | ≥ 5 | 64 | 63 | 12 | > 15000
9 | O=C(Nc1cnn2ccc(N3CCC[C@@H]3c3cc(F)ccc3F)nc12)N1CC[C@H](O)C1 [Larotrectinib] |  |  |  |  |  |  |  |  |  |  |  | 14 | 24 | 5 | 4820
